Tested on: 12 single or co-culture in vitro tissue models of primary cells
Experiment: Culture/co-culture cell model panel, extracellular biomarkers (DiscoveRx); as to CCL2/MCP-1: reference of the scale not given here; as to CD38: reference of the scale not given here; as to CD40: reference of the scale not given here; as to CD69: reference of the scale not given here; as to CXCL8/IL-8: reference of the scale not given here; as to CXCL9/MIG: reference of the scale not given here; as to IL-1alpha: reference of the scale not given here; as to PBMC Cytotoxicity: reference of the scale not given here; as to SRB: reference of the scale not given here
Format: cell-based, human

For Cc1n[nH]c2ncc(C(=O)N3CCC[C@H]3c3ccc(Cl)cc3)cc12 [CMPD4], the CCL26/Eotaxin-3 (/TH2, 3.33E3 nM) was -0.151, the CD38 (/TH2, 3.33E3 nM) was -0.023 and the CD40 (/TH2, 3.33E3 nM) was -0.167. The CD62E/E-Selectin (/TH2, 3.33E3 nM) was 0.088, the CD62P/P-selectin (/TH2, 3.33E3 nM) was -0.076 and the CD69 (/TH2, 3.33E3 nM) was 0.020. For the same compound, the CD87/uPAR (/TH2, 3.33E3 nM) was -0.191, the CD106/VCAM-1 (/TH2, 3.33E3 nM) was 0.009 and the CXCL8/IL-8 (/TH2, 3.33E3 nM) was -0.082. The CXCL9/MIG (/TH2, 3.33E3 nM) was -0.033, the “Collagen IV” value (/TH2, 3.33E3 nM) was 0.00458 and the “PBMC Cytotoxicity” value (/TH2, 3.33E3 nM) was -0.051. It also gave an SRB (/TH2, 3.33E3 nM) of -0.131, a sIL-17A (/TH2, 3.33E3 nM) of 0.034 and a sIL-17F (/TH2, 3.33E3 nM) of 0.022. It also gave a CCL2/MCP-1 (/TH2, 3.70E2 nM) of -0.111, a CCL26/Eotaxin-3 (/TH2, 3.70E2 nM) of -0.170 and a CD38 (/TH2, 3.70E2 nM) of 0.020. The CD40 (/TH2, 3.70E2 nM) was -0.169, the CD62E/E-Selectin (/TH2, 3.70E2 nM) was 0.039 and the CD62P/P-selectin (/TH2, 3.70E2 nM) was -0.043. It also gave a CD69 (/TH2, 3.70E2 nM) of 0.055, a CD87/uPAR (/TH2, 3.70E2 nM) of -0.203 and a CD106/VCAM-1 (/TH2, 3.70E2 nM) of 0.023. For the same compound, the CXCL8/IL-8 (/TH2, 3.70E2 nM) was -0.040, the CXCL9/MIG (/TH2, 3.70E2 nM) was -0.019 and the “Collagen IV” value (/TH2, 3.70E2 nM) was -0.00656. The “PBMC Cytotoxicity” value (/TH2, 3.70E2 nM) was 0.007, the SRB (/TH2, 3.70E2 nM) was -0.083 and the sIL-17A (/TH2, 3.70E2 nM) was 0.040. The sIL-17F (/TH2, 3.70E2 nM) was 0.00074, the CCL2/MCP-1 (/TH2, 4.12E1 nM) was -0.080 and the CCL26/Eotaxin-3 (/TH2, 4.12E1 nM) was -0.157. It also gave a CD38 (/TH2, 4.12E1 nM) of 0.006, a CD40 (/TH2, 4.12E1 nM) of -0.170 and a CD62E/E-Selectin (/TH2, 4.12E1 nM) of 0.069. The CD62P/P-selectin (/TH2, 4.12E1 nM) was -0.051, the CD69 (/TH2, 4.12E1 nM) was 0.028 and the CD87/uPAR (/TH2, 4.12E1 nM) was -0.181. For the same compound, the CD106/VCAM-1 (/TH2, 4.12E1 nM) was 0.009, the CXCL8/IL-8 (/TH2, 4.12E1 nM) was -0.049 and the CXCL9/MIG (/TH2, 4.12E1 nM) was -0.018. The “Collagen IV” value (/TH2, 4.12E1 nM) was -0.002, the “PBMC Cytotoxicity” value (/TH2, 4.12E1 nM) was -0.057 and the SRB (/TH2, 4.12E1 nM) was -0.051. It also gave a sIL-17A (/TH2, 4.12E1 nM) of 0.042, a sIL-17F (/TH2, 4.12E1 nM) of 0.053 and a CCL2/MCP-1 (/TH2, 4.57E0 nM) of -0.000419. For the same compound, the CCL26/Eotaxin-3 (/TH2, 4.57E0 nM) was -0.103, the CD38 (/TH2, 4.57E0 nM) was -0.00453 and the CD40 (/TH2, 4.57E0 nM) was -0.110. For the same compound, the CD62E/E-Selectin (/TH2, 4.57E0 nM) was 0.029, the CD62P/P-selectin (/TH2, 4.57E0 nM) was 0.013 and the CD69 (/TH2, 4.57E0 nM) was 0.026. For the same compound, the CD87/uPAR (/TH2, 4.57E0 nM) was -0.100, the CD106/VCAM-1 (/TH2, 4.57E0 nM) was 0.017 and the CXCL8/IL-8 (/TH2, 4.57E0 nM) was 0.027. For the same compound, the CXCL9/MIG (/TH2, 4.57E0 nM) was 0.021, the “Collagen IV” value (/TH2, 4.57E0 nM) was 0.011 and the “PBMC Cytotoxicity” value (/TH2, 4.57E0 nM) was -0.009. For the same compound, the SRB (/TH2, 4.57E0 nM) was -0.014, the sIL-17A (/TH2, 4.57E0 nM) was 0.056 and the sIL-17F (/TH2, 4.57E0 nM) was 0.044. The CCL26/Eotaxin-3 (BENo, 1.00E4 nM) was 0.048, the CD54/ICAM-1 (BENo, 1.00E4 nM) was -0.115 and the CD87/uPAR (BENo, 1.00E4 nM) was -0.014. It also gave a CXCL8/IL-8 (BENo, 1.00E4 nM) of -0.033, a CXCL9/MIG (BENo, 1.00E4 nM) of 0.082 and a CXCL10/IP-10 (BENo, 1.00E4 nM) of -0.00135. The CXCL11/I-TAC (BENo, 1.00E4 nM) was -0.038, the EGFR (BENo, 1.00E4 nM) was 0.006 and the HLA-DR (BENo, 1.00E4 nM) was -0.032. The IL-1alpha (BENo, 1.00E4 nM) was -0.034, the “Keratin 8/18” value (BENo, 1.00E4 nM) was -0.032 and the MMP-1 (BENo, 1.00E4 nM) was 0.000562. The MMP-9 (BENo, 1.00E4 nM) was -0.051, the PAI-I (BENo, 1.00E4 nM) was -0.097 and the SRB (BENo, 1.00E4 nM) was -0.020. The tPA (BENo, 1.00E4 nM) was -0.115, the uPA (BENo, 1.00E4 nM) was -0.041 and the CCL26/Eotaxin-3 (BENo, 1.11E3 nM) was -0.033. For the same compound, the CD54/ICAM-1 (BENo, 1.11E3 nM) was -0.081, the CD87/uPAR (BENo, 1.11E3 nM) was -0.049 and the CXCL8/IL-8 (BENo, 1.11E3 nM) was -0.031. The CXCL9/MIG (BENo, 1.11E3 nM) was -0.00357, the CXCL10/IP-10 (BENo, 1.11E3 nM) was -0.058 and the CXCL11/I-TAC (BENo, 1.11E3 nM) was -0.048. It also gave an EGFR (BENo, 1.11E3 nM) of 0.007, an HLA-DR (BENo, 1.11E3 nM) of 0.036 and an IL-1alpha (BENo, 1.11E3 nM) of -0.027. For the same compound, the “Keratin 8/18” value (BENo, 1.11E3 nM) was 3.05e-5, the MMP-1 (BENo, 1.11E3 nM) was -0.038 and the MMP-9 (BENo, 1.11E3 nM) was -0.005. The PAI-I (BENo, 1.11E3 nM) was -0.107, the SRB (BENo, 1.11E3 nM) was 0.008 and the tPA (BENo, 1.11E3 nM) was -0.047. The uPA (BENo, 1.11E3 nM) was -0.007, the CCL26/Eotaxin-3 (BENo, 1.23E2 nM) was -0.013 and the CD54/ICAM-1 (BENo, 1.23E2 nM) was -0.092. For the same compound, the CD87/uPAR (BENo, 1.23E2 nM) was -0.00225, the CXCL8/IL-8 (BENo, 1.23E2 nM) was -0.028 and the CXCL9/MIG (BENo, 1.23E2 nM) was -0.018. For the same compound, the CXCL10/IP-10 (BENo, 1.23E2 nM) was -0.010, the CXCL11/I-TAC (BENo, 1.23E2 nM) was -0.021 and the EGFR (BENo, 1.23E2 nM) was 0.013. The HLA-DR (BENo, 1.23E2 nM) was 0.00213, the IL-1alpha (BENo, 1.23E2 nM) was 0.008 and the “Keratin 8/18” value (BENo, 1.23E2 nM) was -0.021. For the same compound, the MMP-1 (BENo, 1.23E2 nM) was -0.035, the MMP-9 (BENo, 1.23E2 nM) was -0.086 and the PAI-I (BENo, 1.23E2 nM) was -0.061. For the same compound, the SRB (BENo, 1.23E2 nM) was 0.015, the tPA (BENo, 1.23E2 nM) was -0.029 and the uPA (BENo, 1.23E2 nM) was -0.020. It also gave a CCL26/Eotaxin-3 (BENo, 1.37E1 nM) of 0.037, a CD54/ICAM-1 (BENo, 1.37E1 nM) of -0.062 and a CD87/uPAR (BENo, 1.37E1 nM) of 0.021. For the same compound, the CXCL8/IL-8 (BENo, 1.37E1 nM) was -0.025, the CXCL9/MIG (BENo, 1.37E1 nM) was -0.110 and the CXCL10/IP-10 (BENo, 1.37E1 nM) was -0.013. For the same compound, the CXCL11/I-TAC (BENo, 1.37E1 nM) was -0.064, the EGFR (BENo, 1.37E1 nM) was 0.011 and the HLA-DR (BENo, 1.37E1 nM) was 0.054. For the same compound, the IL-1alpha (BENo, 1.37E1 nM) was -0.002, the “Keratin 8/18” value (BENo, 1.37E1 nM) was -0.018 and the MMP-1 (BENo, 1.37E1 nM) was -0.037. It also gave an MMP-9 (BENo, 1.37E1 nM) of -0.035, a PAI-I (BENo, 1.37E1 nM) of -0.045 and an SRB (BENo, 1.37E1 nM) of 0.023. For the same compound, the tPA (BENo, 1.37E1 nM) was 0.009, the uPA (BENo, 1.37E1 nM) was -0.014 and the CCL26/Eotaxin-3 (BENo, 3.33E3 nM) was -0.026. It also gave a CD54/ICAM-1 (BENo, 3.33E3 nM) of -0.069, a CD87/uPAR (BENo, 3.33E3 nM) of -0.045 and a CXCL8/IL-8 (BENo, 3.33E3 nM) of -0.035. It also gave a CXCL9/MIG (BENo, 3.33E3 nM) of -0.00357, a CXCL10/IP-10 (BENo, 3.33E3 nM) of -0.006 and a CXCL11/I-TAC (BENo, 3.33E3 nM) of -0.044. For the same compound, the EGFR (BENo, 3.33E3 nM) was 0.00248, the HLA-DR (BENo, 3.33E3 nM) was 0.016 and the IL-1alpha (BENo, 3.33E3 nM) was -0.032. The “Keratin 8/18” value (BENo, 3.33E3 nM) was -0.033, the MMP-1 (BENo, 3.33E3 nM) was -0.028 and the MMP-9 (BENo, 3.33E3 nM) was -0.009. For the same compound, the PAI-I (BENo, 3.33E3 nM) was -0.091, the SRB (BENo, 3.33E3 nM) was -0.011 and the tPA (BENo, 3.33E3 nM) was -0.052. It also gave a uPA (BENo, 3.33E3 nM) of -0.052, a CCL26/Eotaxin-3 (BENo, 3.70E2 nM) of -0.028 and a CD54/ICAM-1 (BENo, 3.70E2 nM) of -0.092. For the same compound, the CD87/uPAR (BENo, 3.70E2 nM) was -0.025, the CXCL8/IL-8 (BENo, 3.70E2 nM) was -0.027 and the CXCL9/MIG (BENo, 3.70E2 nM) was -0.00262. It also gave a CXCL10/IP-10 (BENo, 3.70E2 nM) of -0.017, a CXCL11/I-TAC (BENo, 3.70E2 nM) of -0.036 and an EGFR (BENo, 3.70E2 nM) of -0.014. For the same compound, the HLA-DR (BENo, 3.70E2 nM) was -0.009, the IL-1alpha (BENo, 3.70E2 nM) was -0.009 and the “Keratin 8/18” value (BENo, 3.70E2 nM) was -0.013. For the same compound, the MMP-1 (BENo, 3.70E2 nM) was -0.038, the MMP-9 (BENo, 3.70E2 nM) was -0.012 and the PAI-I (BENo, 3.70E2 nM) was -0.072. It also gave an SRB (BENo, 3.70E2 nM) of 0.008.

— publication PMC5224920, “Assessing the mechanism and therapeutic potential of modulators of the human Mediator complex-associated protein kinases” (eLife, 2016)
